Assay results from patent US11607396B2, “Bicyclic amide compounds and methods of use thereof” (Genentech, Inc., priority 2016, dated 2023).

Target: human RIP1 kinase domain (2-375) (Homo sapiens (Human), UniProt Q13546)
Test: RIP1 kinase inhibition biochemical assay (Transcreener ADP, fluorescence polarization)
Conditions: apparent Ki (Kiapp, Morrison tight-binding fit); 50 nM enzyme, 50 uM ATP, 2 hours incubation
Protocol: RIP1 Kinase Inhibition Assays (Biochemical Assay):
The compounds of the present invention were tested for their capacity to inhibit RIP IK activity as described below.
Enzyme assay: The ability of the receptor interacting protein kinase (RIPK1) to catalyze the hydrolysis of adenosine-5′-triphosphate (ATP) is monitored using the Transcreener ADP (adenosine-5′-diphosphate) assay (BellBrook Labs). Purified human RIP1 kinase domain (2-375) (50 nM) derived from a baculovirus-infected insect cell expression system is incubated with test compounds for 2 hours in 50 mM Hepes buffer (pH 7.5) containing 30 mM MgCl2, 1 mM dithiothreitol, 50 uM ATP, 0.002% Brij-35, and 0.5% dimethyl sulfoxide (DMSO). Reactions are quenched by the addition of IX Bell Brooks Stop buffer B (20 mM Hepes (ph7.5), 40 mM ethylenediaminetetraacetic acid and 0.02% Brij-35) containing an additional 12 mM EDTA and 55 ug/mL ADP2 antibody and 4 nM ADP-AlexaFluor® 633 tracer. The tracer bound to the antibody is displaced by the ADP generated during the RIP IK reaction, which causes a decrease in fluorescence polarization that is measured by laser excitation at 633 nm with a FP microplate reader M1000. Fractional activity was plotted against test article concentration. […]

Chain of human RIP1 kinase domain (2-375) (Q13546 2-375): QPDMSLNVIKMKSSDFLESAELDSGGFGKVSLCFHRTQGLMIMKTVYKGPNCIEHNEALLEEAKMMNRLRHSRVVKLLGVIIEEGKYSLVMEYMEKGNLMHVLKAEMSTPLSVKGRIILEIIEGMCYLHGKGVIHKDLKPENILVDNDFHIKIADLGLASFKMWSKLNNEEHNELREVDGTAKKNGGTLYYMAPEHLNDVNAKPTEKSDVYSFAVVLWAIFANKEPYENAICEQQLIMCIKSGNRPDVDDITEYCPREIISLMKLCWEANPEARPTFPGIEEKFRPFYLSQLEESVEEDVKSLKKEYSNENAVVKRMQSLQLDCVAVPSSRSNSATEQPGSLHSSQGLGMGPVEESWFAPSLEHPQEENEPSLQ

Compound | Ki
O=C(c1nc2n(n1)[C@H](c1ccccc1)C[C@@H]2F)N1CC(F)(F)C1 (single isomer, unassigned) [Example 36] | 0.004 µM
O=C(c1nc2n(n1)CCC2c1ccccc1F)N1CC(F)(F)C1 (racemic) [Example 14, (3,3-difluoroazetidin-1-yl)-[7-(2-fluorophenyl)-6,7-dihydro-5H-pyrrolo[1,2-b][1,2,4]triazol-2-yl]methanone] | 0.233 µM
